Data set [1] can be described thus: Cytotoxicity by MTT assay, reported with the IL-1 assay (Table I). Format: cell-based. The following applies: mouse, thymocytes, cytotoxic when toxicity greater than 25%. The procedure: (§1) Potential cytotoxicity of the test samples was assessed by the measurement of their effect on the reduction of MTT (3-[4,5-Dimethylthiazole-2-yl]-2,5-diphenyltetrazolium bromide) by cultured cells. MTT, a yellow-colored compound, is reduced by mitochondrial enzymes to form the purple crystalline reduction product formazane, providing an index of cellular respiration on viable cells as well as a sensitive assay for cytotoxicity (Mossmann, 1983).
(§2) The cytotoxicity was assessed in cultured human PBMC and mouse thymocytes. A stock solution of MTT (Sigma) at 5 mg/ml in phosphate buffered saline, pH 7.4, was prepared and stored in the dark at 4° C. PBMCs or thymocytes were cultured with various concentrations of test samples in flatbottom 96-well tissue culture plates (Costar) under the same conditions as those described above, but the stimulants (X-35 or IL-1+PHA) were replaced by appropriate medium. Untreated cells with medium alone and without the test samples were used as controls. After incubation for 21 hours, 25 μl of MTT solution was added to each well. After an additional three hours of incubation, the experiment was terminated by addition of a solution of 10% sodium dodecyl sulfate in 0.01N HCl. Following overnight incubation at 37° C. to solubilize the formazane crystals, optical density was determined at 570-650 nm in microplate reader. […]

The nature of data set [2]: Cytotoxicity by MTT assay, reported with the MLR assay (Table II). Format: cell-based. The following applies: pbmc and thymocytes, cytotoxic when toxicity greater than 25%. The procedure: as §1, §2
A general note: Tetrazolium dyes change colour on reduction, which living cells bring about.

Data set [3] can be described thus: Stability in blood serum (TLC). The data set is classed as in vitro ADME. The following applies: rat serum, 37° C. The procedure: The stability of triptolide succinate in blood serum was determined as detailed in Example 10B. In this study, a solution of triptolide succinate (YM-262, free acid) in DMSO was mixed with rat serum and incubated at 37° C. The mixture was assayed periodically by thin layer chromatography (TLC) to follow the hydrolysis of the triptolide succinate over time.
A solution of triptolide succinate (free acid; YM-262) in DMSO was made at a concentration of 25 mg/ml, and 0.1 ml of this solution was mixed with 0.5 ml of rat serum. The mixture was incubated at 37° C. Aliquots of the mixture were taken at 1, 3, 5, 15, 45 minutes and 18 hours and analyzed by thin layer chromatography (TLC). The TLC plates were developed in 1:5 CH2 CI2 /Et2 O. After development, the plates were treated with iodine vapor and examined under a UV lamp. Triptolide and triptolide succinate were used as reference compounds (Rf =0.60), and 0.45, respectively).

As to `CC(C)[C@]12O[C@H]1[C@@H]1O[C@]13[C@]1(O[C@H]1C[C@H]1C4=C(CC[C@@]13C)C(=O)OC4)[C@@H]2O` [Triptolide, triptolide], the MCC in data set [1] was above 12.5 µg/mL; in data set [2], 0.0133 µg/mL. For the same compound, the “triptolide spot, 15 minutes (formed from triptolide succinate)” value in data set [3] (15 minutes) is “a new spot corresponding to triptolide had appeared”. In data set [3] (45 minutes), the “triptolide spot, 45 minutes (formed from triptolide succinate)” value is listed as “the triptolide spot had also disappeared”.
